# Assay results from ChEMBL document CHEMBL3507680, “University of Dundee, Gates Library screen for HepG2 cell viability”.
# Test: Human HepG2 cell viability assay in 384 well format
# Assay type: toxicity, cell-based
# Design: dose 125 nL, time 70.5 hour; cytotoxicity at 70.5 h: concentration not given beside the values
# Conditions: HepG2 cells, read-out: Inhibition
row,Structure (SMILES),cytotoxicity at 70.5 h
1,O=C(C1CN(CC2CC2)CC12CCOCC2)N1CCOCC1 (stereo not given),-1.96%
2,Cc1nc(C2CCCN2C(=O)CN(C)Cc2ccccc2)no1 (stereo not given),-2.86%
3,Cc1cc(CN2CC[C@]3(C[C@@H](OCC(=O)N(C)C)CO3)C2)no1,-6.96%
4,CC(NCCn1c(=O)oc2ccccc21)c1ccccn1 (stereo not given),-5.54%
5,COc1cccc2ccc(CN3CCN(c4ncccc4C)CC3)nc12,-7.71%
6,Cc1ccc2oc(=O)n(CC(=O)N3CCC4(CC3)CN(C)C(=O)O4)c2c1,13.2%
7,COc1cc(-c2nc3c([nH]2)CCCNC3=O)cc(OC)c1OC,-1.49%
8,N#Cc1ccc(S(=O)(=O)N2CSCC2C(=O)NCC(F)(F)F)cc1 (stereo not given),-5.51%
9,COc1ncc(C2(O)CCN(Cc3cccc(F)c3F)CC2)c(OC)n1,-3.22%
10,CCOc1cccc(CNc2cccc(C(=O)OC)c2)c1O,-19.3%
11,O=C(c1ccc(CNC2CCSC2)cc1)N1CCCC1 (stereo not given),-0.303%
12,CN(C)C(=O)CN(C)C(=O)c1csc(Br)c1,13.6%
13,CN(C)CCCN(C)C1CCN(c2cccc(-c3cscn3)c2)CC1,-2.04%
14,CCc1c(C)nc2cc(C3CCN(Cc4ccncc4C)C3)nn2c1O (stereo not given),-3.92%
15,O=C(NCCOCCO)[C@@]12CNC[C@@H]1CN(C1CCCC1)C2,2.24%
16,CC(C)C1CN(S(=O)(=O)c2cccc(C#N)c2)CCS1 (stereo not given),8.4%
17,CCNC(=O)[C@@H]1C[C@H](NC(=O)c2cc(CC)n[nH]2)CN1Cc1ccsc1,-6.78%
18,CC(C)NC(=O)[C@@H]1C[C@H](N)CN1C(=O)c1cc2ccccc2[nH]c1=O,-8.06%
19,O=C(NCCSC1CCCC1)c1cc(Cl)ccn1,22.7%
20,CN1CCCC2(CCN(c3cc(C(F)(F)F)nc(N(C)C)n3)C2)C1=O (stereo not given),10.3%
21,Cc1occc1C(=O)N1CCn2cnc(COCC3CC3)c2C1,-0.838%
22,OCCn1nccc1C1CCN(Cc2nc(C3CC3)no2)CC1,-1.33%
23,CC(SCCC(=O)NC(N)=O)c1ccc(F)cc1F (stereo not given),-14.8%

row,Structure (SMILES),cytotoxicity at 70.5 h
1,COc1ccc(CN(C)C(=O)c2nnc(CN(C)C)o2)cc1,-3.32%
2,Cn1cccc1C(=O)NC[C@H]1C[C@@H]2CN(C(=O)c3ccco3)C[C@@H]2O1,-1.72%
3,Cc1ccccc1CN1CC[C@H](c2nnc(-c3cncn3C)o2)C1,1.18%
4,Cc1ccc(CNC2(Cc3cc(CC(C)C)on3)COC2)o1,9.27%
5,c1ncn(CCNC2CCCN(Cc3noc(C4CC4)n3)C2)n1 (stereo not given),-11.2%
6,CCc1ocnc1C(=O)N1CCCC(n2nc(C)nc2C)C1 (stereo not given),5.06%
7,CN(Cc1ccccc1O)CC1CCCN(CCc2ccc(Cl)cc2)C1 (stereo not given),-2.45%
8,CC(=O)N(Cc1noc(C)n1)C1CCN(Cc2cc(C)on2)C1 (stereo not given),-2.83%
9,Cn1cc(-c2cnc(N3CCCC3)nc2)cc1C(=O)N1CCOCC1,-27.4%
10,Cc1ccc2nc(CN3CCCCC3CCN3CCOCC3)cn2c1 (stereo not given),-10.8%
11,Cc1nc2ccccc2c(=O)n1CCC(=O)N1CCCCCC1,1.78%
12,Cc1nn(C)c2nc(NCCOCCO)sc12,-4.46%
13,O=C(c1ccco1)N1CCC(n2nc(-c3ccco3)ccc2=O)CC1,-3.82%
14,COc1ccccc1CN1CC[C@]2(C[C@@H](OC)CO2)C1,-4.33%
15,O=C(C1CC1)N1CCC2(CC1)CNCc1ccccc12,18.9%
16,CC[C@H]1CN(C(=O)c2cccnc2)CC[C@H]1CC(=O)NC1CC1,-4.36%
17,CCCOc1cc(C)ccc1NC(=O)NCCNC(=O)C(C)C,25.7%
18,CC[C@@H](C)[C@H](NC(=O)CCn1cc(C(C)=O)c2ccccc21)C(=O)O,-6.89%
19,CN1C(=O)CCC12CCCN(Cc1nccs1)C2 (stereo not given),23.1%
20,CN(C(=O)Cn1nc(-c2ccccc2F)ccc1=O)C1CCS(=O)(=O)C1 (stereo not given),-25.7%
21,Cc1noc(C)c1-c1cc(CC2CCN(C(=O)c3cc[nH]n3)C2)ncn1 (stereo not given),-0.894%
22,O=C(CCn1ccc2ccc(Br)cc21)/N=c1\[nH]nc(C2CCCO2)s1 (stereo not given),-14.5%
23,Cc1cc(C)n(Cc2cc(C(=O)N3CCCCC3c3nccs3)n[nH]2)n1 (stereo not given),8.98%

row,Structure (SMILES),cytotoxicity at 70.5 h
1,CCc1nnc(N2C[C@@H](CN(C)CCO)[C@@H](CO)C2)s1,-12.4%
2,CC(=O)NCC1CCCN(C(=O)Cc2c(C)noc2C)C1 (stereo not given),-22.9%
3,O[C@@]1(CNCCCNc2cccnc2)CCCN2CCCC[C@@H]21,-5.62%
4,CCN(Cc1cccnc1)C1CCN(c2ccccc2)C1=O (stereo not given),-3.8%
5,Cc1cccc(CN2C[C@@H]3COC[C@]3(CNC(=O)c3ccsc3)C2)n1,-8.41%
6,CCOC(=O)NC(CNC(=O)c1cc(Cl)ccn1)CC(C)C (stereo not given),5.7%
7,Cc1ccc(-c2cc(C(=O)NC(C)C(=O)N3CCCCC3)on2)cc1 (stereo not given),5.48%
8,CNc1cc(N2CCCC2CNCc2ccc(C)o2)ncn1 (stereo not given),5.47%
9,O=C(O)c1ccc(N2CCC(Oc3ccc(Cl)cc3)CC2)nc1,-12.3%
10,COCCC(=O)N1CC[C@@H](N2CCOCC2)[C@@H]1Cc1ccccc1,-8.94%
11,CNC(=O)c1cccc(NCC(=O)Nc2cc(C)nn2C)c1C,-14%
12,CCCc1noc(CCC(=O)Nc2cc(C(F)(F)F)c[nH]c2=O)n1,-6.41%
13,CCN(Cc1nc(C2CC2)no1)Cc1ccc(C#N)cc1F,-3.69%
14,CCc1ncc(C(=O)NCCNc2ccncc2)s1,-0.807%
15,O=C(CCn1c(C(F)F)cc2cccnc21)NC1CCCCC1,-5.83%
16,O=C(N[C@@H]1CCN(C(=O)c2cc[nH]c2)C[C@H]1O)c1ccccn1,-0.892%
17,CC(C)CC(NC(=O)OC(C)(C)C)C(N)=O (stereo not given),20.5%
18,COCc1nc(C(=O)N2CCCC(n3nc(C)cc3C)C2)cs1 (stereo not given),-8.71%
19,CN1CCN(Cc2ccc(-c3ccc4[nH]ccc4c3)nc2)CC1,-15.3%
20,O=c1ccc(-n2ccnc2)nn1CCNS(=O)(=O)c1ccccc1Cl,-1.86%
21,Cc1cc(C(=O)N2CCN(Cc3ccsc3)CC2)n(C)n1,-14.3%
22,Cc1ocnc1C(=O)N(C)[C@@H]1CC[C@@H](n2ccnc2C)[C@@H]1O,-7.34%
23,CCn1cc(CN2CCCC(c3[nH]ncc3S(C)(=O)=O)C2)cn1 (stereo not given),1.9%

row,Structure (SMILES),cytotoxicity at 70.5 h
1,CN1CCCN(C(=O)c2cccn2-c2ccc3c(c2)OCCO3)CC1,-5.24%
2,O=C(c1ccc2c(c1)CCO2)N1CCN(c2cnccn2)CC1,-5.33%
3,CCN1CCC(CC(=O)N2CCCCC2CCn2cccn2)CC1 (stereo not given),-11.1%
4,Cc1ncncc1C(=O)NCCN1CCC(C)CC1,5.52%
5,CC(C)C(=O)N1CCCC1C(=O)Nc1cc(C(F)(F)F)ccc1F (stereo not given),-17.3%
6,Cn1ccnc1CN1CCC(CCCc2ccccn2)(C(N)=O)CC1,-13.4%
7,CC(C)Nc1ncnc2c1CCN(C(=O)NCc1cccnc1)CC2,-1.24%
8,COCCN1CCCc2sc(C(=O)NCC3CCCO3)nc21 (stereo not given),31.2%
9,COc1cccc(C(=O)NS(=O)(=O)c2cccc(C#N)c2)c1,-6.99%
10,CC(C)(C)OC(=O)NC1(c2noc(-c3ccoc3)n2)CCC1,-6.71%
11,CS(=O)(=O)N1CCC(c2nnc3ccc(C(=O)NC4CCC4)cn23)C1 (stereo not given),12.6%
12,COc1cccc(C(=O)N(C)C(C)c2c(C)n[nH]c2C)c1OC (stereo not given),-5.83%
13,CSC1=Nc2c(cnn2-c2ccc(Cl)cc2)C2=NCCCN12,-7.03%
14,Cc1ncc(CN(C)C(=O)c2ccc(N3CCOCC3)c(F)c2)s1,-6.71%
15,O=C1CCC2(CCN(c3ncc(F)cn3)CC2)N1CCN1CCCC1,25.9%
16,CC(C)(C)n1cc(NCc2cscn2)cn1,-6.29%
17,CC(C)(C)OC(=O)N1CCCN1C(=O)c1cccc(F)c1F,-5.84%
18,O=C(c1cnccn1)N1CCCC2(CCN(Cc3cccnc3)C2)C1 (stereo not given),-4.19%
19,CC(C)N(Cc1cccc(Cl)c1)Cc1nnsc1Cl,-2.95%
20,Cc1nn(C)c(N2CCOCC2)c1CNC1CCCCNC1=O (stereo not given),-5.43%
21,CN(C)S(=O)(=O)Nc1ccc(Oc2ccc3c(c2)OCO3)cc1,-5.35%
22,COCC(=O)NCc1cc(=O)n2c(n1)CN(CC1CC1)CCC2,0.0162%
23,CN1CCC(N2CCC(C(=O)N(C)C)CC2)CC1,-0.525%

row,Structure (SMILES),cytotoxicity at 70.5 h
1,Cn1ccc(CN2CCC(CO)CC2)cc1=O,-9.02%
2,COCC[C@]1(O)CCN(Cc2nc(C)c(C)s2)C[C@H]1C,-7.5%
3,CN1CCCC(c2nccnc2-c2cccc(Cl)c2)C1 (stereo not given),-9.62%
4,Cc1cccc(-c2ncc(CNC(C)CO)cn2)c1 (stereo not given),27.8%
5,Cc1cc(C(F)(F)F)c2c(=O)n(Cc3ccon3)n(C)c2n1,-5.27%
6,O=C(CCNC(=O)c1ccoc1)Nc1ccccc1F,-8.3%
7,Cc1ncc(CN(C)CC2CCCN2c2cccnn2)s1 (stereo not given),8.83%
8,CC(=O)NC[C@H]1COCc2nc3c(C)cccc3n21,10.8%
9,O=C1N(Cc2cccnc2)C[C@H]2CN(S(=O)(=O)c3ccccc3)CCN12,1.73%
10,c1c[nH]c2nc(C3CCCNC3)nc-2c1 (stereo not given),-13.7%
11,Cn1ccnc1CCNC(=O)C1CCCN(Cc2cccc(F)c2)C1 (stereo not given),-7.53%
12,COc1c(CNCCC(=O)Nc2cccc(C)n2)c(C)nn1C,-1.12%
13,CCC(Nc1ccc(CCN2CCOCC2)cc1)C(N)=O (stereo not given),-19.6%
14,Cc1nc(CCC(=O)NCC(N)=O)cc(C2CCNCC2)n1,-6.67%
15,O=C(Cn1cccn1)Nc1ccc(N2CCOCC2)cc1,0.51%
16,COc1cc(N2CCCn3cnc(COCCO)c3C2)ncn1,0.488%
17,O=C(Cn1ccnc1)N1C[C@@H]2CC[C@H](Oc3ccccc3F)[C@@H]2C1,10.9%
18,Cc1noc(C)c1-c1cncc(C2CCCN2Cc2ncc[nH]2)n1 (stereo not given),16.2%
19,Cc1ccccc1-c1cc(NC(=O)CC(C)C)n(CCO)n1,5.13%
20,OCCN1CCC(F)(F)C2(CCN(c3cccnc3)C2)C1 (stereo not given),-6.87%
21,O=C(Nc1ccccn1)N(CCO)Cc1ccccc1Br,-2.33%
22,Cc1nc(NCCc2ccc(Cl)cc2)cc(C(=O)N2CCCCC2)n1,13.8%
23,Cc1noc(OCc2csc(C)n2)n1,-3.72%
